Structures are written as SMILES.

For orientation: AC50 means the concentration at which the activity in the assay is half-maximal. High values mean activity only at high concentration, low ones activity at low concentration.

Assay [1] deals with Vascular endothelial growth factor receptor 2 (Homo sapiens, UniProt P35968). It is filed as functional.
Assay [2] deals with T1, Adenosine receptor A3 (Homo sapiens, UniProt P0DMS8).
T1 sequence (P0DMS8 whole entry): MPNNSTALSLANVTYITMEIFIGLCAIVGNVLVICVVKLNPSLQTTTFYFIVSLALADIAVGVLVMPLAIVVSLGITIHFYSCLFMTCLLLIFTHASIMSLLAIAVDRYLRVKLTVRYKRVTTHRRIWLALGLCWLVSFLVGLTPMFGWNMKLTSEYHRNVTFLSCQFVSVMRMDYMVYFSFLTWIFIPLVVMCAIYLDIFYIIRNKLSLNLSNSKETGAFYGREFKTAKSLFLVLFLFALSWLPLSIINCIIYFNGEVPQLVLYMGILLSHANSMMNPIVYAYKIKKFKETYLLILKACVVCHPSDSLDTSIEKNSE

A further assay concerns the target D(3) dopamine receptor (Homo sapiens, UniProt P35462).
The target of assay [3] is 5-hydroxytryptamine receptor 2B (Homo sapiens, UniProt P41595). The assay is classed as functional, cell-based.
Sequence of 5-hydroxytryptamine receptor 2B (P41595 whole entry): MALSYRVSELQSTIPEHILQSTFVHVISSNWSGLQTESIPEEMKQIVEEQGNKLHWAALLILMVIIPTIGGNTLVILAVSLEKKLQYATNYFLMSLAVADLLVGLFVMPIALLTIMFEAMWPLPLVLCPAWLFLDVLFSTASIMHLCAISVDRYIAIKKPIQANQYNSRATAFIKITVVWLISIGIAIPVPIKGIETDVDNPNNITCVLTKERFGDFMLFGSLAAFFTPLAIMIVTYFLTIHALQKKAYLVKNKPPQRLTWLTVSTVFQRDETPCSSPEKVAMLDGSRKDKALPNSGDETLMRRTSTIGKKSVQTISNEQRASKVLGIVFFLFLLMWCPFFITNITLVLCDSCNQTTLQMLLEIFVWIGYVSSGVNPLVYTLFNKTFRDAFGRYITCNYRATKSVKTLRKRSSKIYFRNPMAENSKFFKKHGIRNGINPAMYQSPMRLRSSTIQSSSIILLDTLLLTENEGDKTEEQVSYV
The target of assay [4] is Gamma-aminobutyric acid receptor subunit alpha-1/alpha-2/beta-2/gamma-2 (Homo sapiens, UniProt P14867+P18507+P47869+P47870). The assay is classed as protein-complex assay.
Sequence of Gamma-aminobutyric acid receptor subunit alpha-1/alpha-2/beta-2/gamma-2 (P14867 whole entry): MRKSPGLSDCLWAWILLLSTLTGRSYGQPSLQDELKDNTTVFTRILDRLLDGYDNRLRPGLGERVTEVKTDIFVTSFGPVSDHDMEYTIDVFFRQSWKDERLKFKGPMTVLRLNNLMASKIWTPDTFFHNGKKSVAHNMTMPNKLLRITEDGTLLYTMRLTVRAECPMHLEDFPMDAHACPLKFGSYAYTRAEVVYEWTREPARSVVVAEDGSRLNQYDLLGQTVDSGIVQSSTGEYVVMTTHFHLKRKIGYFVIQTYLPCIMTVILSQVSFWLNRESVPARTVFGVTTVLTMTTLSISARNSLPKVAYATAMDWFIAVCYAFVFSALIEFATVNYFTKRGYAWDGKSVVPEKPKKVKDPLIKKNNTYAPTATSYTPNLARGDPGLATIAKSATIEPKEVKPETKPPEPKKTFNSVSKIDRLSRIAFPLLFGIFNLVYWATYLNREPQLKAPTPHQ
Sequence of Gamma-aminobutyric acid receptor subunit alpha-1/alpha-2/beta-2/gamma-2 (P47870 whole entry): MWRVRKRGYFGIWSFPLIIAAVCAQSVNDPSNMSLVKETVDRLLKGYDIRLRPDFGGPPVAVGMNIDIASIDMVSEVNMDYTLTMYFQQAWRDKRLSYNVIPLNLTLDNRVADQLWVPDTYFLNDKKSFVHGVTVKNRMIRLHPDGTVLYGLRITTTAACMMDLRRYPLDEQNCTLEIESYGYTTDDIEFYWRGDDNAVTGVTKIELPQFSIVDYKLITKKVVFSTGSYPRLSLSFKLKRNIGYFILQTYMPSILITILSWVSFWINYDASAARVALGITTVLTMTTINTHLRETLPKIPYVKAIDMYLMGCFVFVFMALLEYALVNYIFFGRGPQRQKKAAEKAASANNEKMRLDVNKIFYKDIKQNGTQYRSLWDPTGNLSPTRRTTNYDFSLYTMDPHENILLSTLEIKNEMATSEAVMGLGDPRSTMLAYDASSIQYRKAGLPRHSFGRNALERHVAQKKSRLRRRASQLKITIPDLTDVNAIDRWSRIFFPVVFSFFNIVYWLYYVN
Sequence of Gamma-aminobutyric acid receptor subunit alpha-1/alpha-2/beta-2/gamma-2 (P18507 whole entry): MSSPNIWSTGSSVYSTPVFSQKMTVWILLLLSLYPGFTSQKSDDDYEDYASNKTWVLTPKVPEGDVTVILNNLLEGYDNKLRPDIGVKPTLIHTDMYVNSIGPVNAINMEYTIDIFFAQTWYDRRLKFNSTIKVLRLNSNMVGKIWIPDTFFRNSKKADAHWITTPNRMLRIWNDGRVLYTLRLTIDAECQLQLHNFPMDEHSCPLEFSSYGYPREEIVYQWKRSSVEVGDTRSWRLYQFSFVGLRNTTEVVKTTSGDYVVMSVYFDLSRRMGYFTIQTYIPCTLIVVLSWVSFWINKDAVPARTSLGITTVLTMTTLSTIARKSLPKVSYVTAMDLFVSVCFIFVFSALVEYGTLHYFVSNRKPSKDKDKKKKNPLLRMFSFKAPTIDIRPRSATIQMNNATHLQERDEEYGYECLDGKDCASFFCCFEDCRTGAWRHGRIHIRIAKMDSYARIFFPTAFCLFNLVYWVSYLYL
Sequence of Gamma-aminobutyric acid receptor subunit alpha-1/alpha-2/beta-2/gamma-2 (P47869 whole entry): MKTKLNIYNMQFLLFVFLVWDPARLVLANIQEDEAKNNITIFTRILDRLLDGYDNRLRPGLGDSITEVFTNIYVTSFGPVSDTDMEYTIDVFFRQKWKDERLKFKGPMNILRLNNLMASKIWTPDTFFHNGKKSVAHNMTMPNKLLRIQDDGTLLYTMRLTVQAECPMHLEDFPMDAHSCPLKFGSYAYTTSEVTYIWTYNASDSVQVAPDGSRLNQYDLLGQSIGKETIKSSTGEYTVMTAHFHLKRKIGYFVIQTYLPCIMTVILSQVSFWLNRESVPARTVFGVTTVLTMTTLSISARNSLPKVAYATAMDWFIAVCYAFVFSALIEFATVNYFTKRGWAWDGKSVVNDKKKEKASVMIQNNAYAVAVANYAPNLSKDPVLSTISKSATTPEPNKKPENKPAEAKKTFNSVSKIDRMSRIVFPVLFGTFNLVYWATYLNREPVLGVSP
Assay [5] addresses T2, 5-hydroxytryptamine receptor 1A (Homo sapiens, UniProt P08908).
T2 sequence (P08908 whole entry): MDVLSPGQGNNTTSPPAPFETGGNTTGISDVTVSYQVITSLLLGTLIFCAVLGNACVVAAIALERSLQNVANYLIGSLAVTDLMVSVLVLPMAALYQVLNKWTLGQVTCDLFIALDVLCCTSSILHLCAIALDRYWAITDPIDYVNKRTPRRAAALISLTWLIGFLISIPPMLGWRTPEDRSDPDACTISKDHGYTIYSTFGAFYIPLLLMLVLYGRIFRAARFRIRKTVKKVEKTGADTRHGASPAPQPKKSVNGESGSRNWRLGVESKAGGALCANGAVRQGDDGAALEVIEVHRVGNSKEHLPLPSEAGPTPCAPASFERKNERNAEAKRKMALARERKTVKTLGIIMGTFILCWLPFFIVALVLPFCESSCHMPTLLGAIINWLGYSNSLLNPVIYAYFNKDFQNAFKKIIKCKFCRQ

Assay [6] addresses T3, Gamma-aminobutyric acid receptor subunit alpha-1 (Rattus norvegicus, UniProt P62813).
Assay [7] addresses Sodium-dependent dopamine transporter (Homo sapiens, UniProt Q01959).
The target in assay [8] is T1, Adenosine receptor A3. The source holds these as a separate data set.
Another assay deals with Histamine H2 receptor (Homo sapiens, UniProt P25021). The assay is classed as functional, cell-based.
For assay [9], the target named is T2, 5-hydroxytryptamine receptor 1A. It is filed as functional, cell-based.
Assay [10] deals with Delta-type opioid receptor (Homo sapiens, UniProt P41143).
Sequence of Delta-type opioid receptor (P41143 whole entry): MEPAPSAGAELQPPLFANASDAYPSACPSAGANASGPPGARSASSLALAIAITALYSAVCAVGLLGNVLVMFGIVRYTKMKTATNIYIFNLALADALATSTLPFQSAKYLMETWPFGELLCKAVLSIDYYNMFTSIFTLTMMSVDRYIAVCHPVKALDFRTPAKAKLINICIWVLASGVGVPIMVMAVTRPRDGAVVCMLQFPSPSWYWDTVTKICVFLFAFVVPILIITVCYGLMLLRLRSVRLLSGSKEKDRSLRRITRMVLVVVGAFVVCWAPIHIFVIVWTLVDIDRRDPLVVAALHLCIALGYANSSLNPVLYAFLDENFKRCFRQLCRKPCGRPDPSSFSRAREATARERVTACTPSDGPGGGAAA
A further assay deals with Motilin receptor (Homo sapiens, UniProt O43193).
For assay [11], the target named is T3, Gamma-aminobutyric acid receptor subunit alpha-1. The source holds these as a separate data set.
For a further assay, the target named is D(1A) dopamine receptor (Homo sapiens, UniProt P21728). The assay is classed as functional, cell-based.
Assay [12] deals with T4, Alpha-2A adrenergic receptor (Homo sapiens, UniProt P08913).
T4 sequence (P08913 whole entry): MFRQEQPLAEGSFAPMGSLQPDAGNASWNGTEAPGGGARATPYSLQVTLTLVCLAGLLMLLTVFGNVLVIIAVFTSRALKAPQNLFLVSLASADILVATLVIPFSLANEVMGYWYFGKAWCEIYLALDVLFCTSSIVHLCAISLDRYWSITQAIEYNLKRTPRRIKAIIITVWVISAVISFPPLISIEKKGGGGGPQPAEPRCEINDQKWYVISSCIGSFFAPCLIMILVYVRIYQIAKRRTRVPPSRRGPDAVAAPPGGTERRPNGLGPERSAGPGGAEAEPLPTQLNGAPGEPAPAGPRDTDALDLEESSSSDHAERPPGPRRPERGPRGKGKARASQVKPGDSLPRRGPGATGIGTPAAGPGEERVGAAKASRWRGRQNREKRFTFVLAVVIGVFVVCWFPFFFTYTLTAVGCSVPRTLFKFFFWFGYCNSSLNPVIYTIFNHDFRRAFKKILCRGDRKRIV
The assay is classed as functional, cell-based.

The target of assay [13] is T5, Amine oxidase [flavin-containing] A (Homo sapiens, UniProt P21397).
T5 sequence (P21397 whole entry): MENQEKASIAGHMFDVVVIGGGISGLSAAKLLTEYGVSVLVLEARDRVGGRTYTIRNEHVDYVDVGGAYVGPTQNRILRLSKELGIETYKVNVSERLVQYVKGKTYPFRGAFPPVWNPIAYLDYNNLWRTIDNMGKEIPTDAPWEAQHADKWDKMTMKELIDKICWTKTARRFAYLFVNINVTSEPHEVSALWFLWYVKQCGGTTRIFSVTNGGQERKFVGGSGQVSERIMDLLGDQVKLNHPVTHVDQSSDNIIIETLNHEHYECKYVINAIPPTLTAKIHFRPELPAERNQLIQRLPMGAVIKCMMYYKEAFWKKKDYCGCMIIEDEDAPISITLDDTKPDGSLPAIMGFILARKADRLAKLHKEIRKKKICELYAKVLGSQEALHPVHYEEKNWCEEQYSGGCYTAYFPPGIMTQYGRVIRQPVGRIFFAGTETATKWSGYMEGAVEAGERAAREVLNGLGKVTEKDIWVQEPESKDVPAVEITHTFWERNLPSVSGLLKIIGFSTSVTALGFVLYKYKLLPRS
It is filed as functional.

Assay [14] deals with T3, Gamma-aminobutyric acid receptor subunit alpha-1. It is filed as functional.
Further: assay procedure not described here.

Sequence of Vascular endothelial growth factor receptor 2 (P35968 whole entry): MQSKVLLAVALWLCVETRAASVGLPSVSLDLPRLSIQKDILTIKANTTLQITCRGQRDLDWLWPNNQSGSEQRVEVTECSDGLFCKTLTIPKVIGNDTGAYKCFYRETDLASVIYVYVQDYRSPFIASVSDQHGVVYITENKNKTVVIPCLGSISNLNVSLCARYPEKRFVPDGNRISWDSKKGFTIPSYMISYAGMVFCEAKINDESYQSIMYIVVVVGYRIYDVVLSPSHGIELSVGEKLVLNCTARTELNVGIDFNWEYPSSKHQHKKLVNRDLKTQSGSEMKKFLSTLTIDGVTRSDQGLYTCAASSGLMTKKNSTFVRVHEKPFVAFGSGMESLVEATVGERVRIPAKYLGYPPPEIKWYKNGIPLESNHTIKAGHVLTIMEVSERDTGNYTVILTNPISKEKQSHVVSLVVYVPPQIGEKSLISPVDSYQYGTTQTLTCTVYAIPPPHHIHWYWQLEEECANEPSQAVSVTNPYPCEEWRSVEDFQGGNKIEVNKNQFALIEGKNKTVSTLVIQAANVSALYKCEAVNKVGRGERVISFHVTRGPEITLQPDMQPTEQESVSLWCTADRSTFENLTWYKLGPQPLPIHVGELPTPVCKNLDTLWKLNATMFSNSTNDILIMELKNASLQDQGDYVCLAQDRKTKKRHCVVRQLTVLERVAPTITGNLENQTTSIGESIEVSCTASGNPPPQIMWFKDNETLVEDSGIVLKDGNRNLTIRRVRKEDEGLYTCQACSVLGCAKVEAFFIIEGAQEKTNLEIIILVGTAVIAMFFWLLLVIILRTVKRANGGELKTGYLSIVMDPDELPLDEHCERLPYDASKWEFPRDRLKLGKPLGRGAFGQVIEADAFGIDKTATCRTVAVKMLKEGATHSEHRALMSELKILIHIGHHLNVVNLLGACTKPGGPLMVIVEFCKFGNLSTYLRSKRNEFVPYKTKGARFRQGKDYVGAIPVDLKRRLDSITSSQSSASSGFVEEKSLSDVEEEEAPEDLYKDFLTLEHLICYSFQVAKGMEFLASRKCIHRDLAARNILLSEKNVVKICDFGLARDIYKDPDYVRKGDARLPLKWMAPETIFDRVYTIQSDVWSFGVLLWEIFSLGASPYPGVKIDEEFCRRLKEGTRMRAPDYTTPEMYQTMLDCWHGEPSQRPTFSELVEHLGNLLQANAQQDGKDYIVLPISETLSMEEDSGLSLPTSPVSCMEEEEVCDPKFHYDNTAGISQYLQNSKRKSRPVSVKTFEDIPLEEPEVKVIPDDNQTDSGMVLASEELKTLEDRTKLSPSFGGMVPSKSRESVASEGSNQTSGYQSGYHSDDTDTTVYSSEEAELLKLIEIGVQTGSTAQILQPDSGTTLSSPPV
T3 sequence (P62813 whole entry): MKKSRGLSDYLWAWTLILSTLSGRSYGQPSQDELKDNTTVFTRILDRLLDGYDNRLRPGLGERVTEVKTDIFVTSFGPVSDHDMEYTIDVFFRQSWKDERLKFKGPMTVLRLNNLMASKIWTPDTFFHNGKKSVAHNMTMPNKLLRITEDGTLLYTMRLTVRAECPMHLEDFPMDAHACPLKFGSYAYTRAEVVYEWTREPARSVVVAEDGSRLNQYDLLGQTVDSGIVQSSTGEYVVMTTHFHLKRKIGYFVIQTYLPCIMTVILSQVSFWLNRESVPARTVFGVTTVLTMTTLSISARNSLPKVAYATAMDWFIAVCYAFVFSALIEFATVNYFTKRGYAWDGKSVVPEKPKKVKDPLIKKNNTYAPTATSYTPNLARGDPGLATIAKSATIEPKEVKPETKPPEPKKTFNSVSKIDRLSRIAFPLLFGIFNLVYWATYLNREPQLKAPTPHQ
Sequence of D(3) dopamine receptor (P35462 whole entry): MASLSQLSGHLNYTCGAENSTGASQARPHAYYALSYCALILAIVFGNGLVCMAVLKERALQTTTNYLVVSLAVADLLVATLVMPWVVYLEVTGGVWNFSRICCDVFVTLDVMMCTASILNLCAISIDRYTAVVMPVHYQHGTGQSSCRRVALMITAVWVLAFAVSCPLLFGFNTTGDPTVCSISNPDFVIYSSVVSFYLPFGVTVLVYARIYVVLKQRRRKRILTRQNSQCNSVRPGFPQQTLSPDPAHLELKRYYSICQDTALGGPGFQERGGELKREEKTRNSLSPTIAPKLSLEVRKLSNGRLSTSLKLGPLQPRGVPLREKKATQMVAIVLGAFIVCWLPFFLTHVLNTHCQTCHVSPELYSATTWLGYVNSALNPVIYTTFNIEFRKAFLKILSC

With `O=C(O)CC(O)(CC(=O)O)C(=O)O` [CITRIC ACID], the AC50 (in assay [1]; at Adenosine receptor A3 [2]; at D(3) dopamine receptor; in [3]; in [4]; in [5]) was > 30 µM in each case.
In the case of `CCC[C@@H]1C[C@@H](C(=O)N[C@@H]([C@H]2O[C@H](SC)[C@H](OP(=O)(O)O)[C@@H](O)[C@H]2O)[C@H](C)Cl)N(C)C1` [CLINDAMYCIN PHOSPHATE], the AC50 (in assay [1]; on Adenosine receptor A3 [2]; at D(3) dopamine receptor; in assay [3]; in assay [5]; in assay [6]) was > 30 µM throughout.
For the compound `Cc1onc(-c2c(Cl)cccc2Cl)c1C(=O)N[C@@H]1C(=O)N2[C@@H]1SC(C)(C)[C@@H]2C(=O)O` [DICLOXACILLIN], the AC50 (in [1]; at Adenosine receptor A3 [2]; at D(3) dopamine receptor; in assay [3]; in assay [4]; in assay [5]) was > 30 µM each time.
For `C[C@H]1O[C@@H](O[C@H]2[C@@H](O)C[C@H](O[C@H]3[C@@H](O)C[C@H](O[C@H]4CC[C@@]5(C)[C@H](CC[C@@H]6[C@@H]5CC[C@]5(C)[C@@H](C7=CC(=O)OC7)CC[C@]65O)C4)O[C@@H]3C)O[C@@H]2C)C[C@H](O)[C@@H]1O` [DIGITOXIN], the half-maximal activity concentration (AC50) (in [1]; on Adenosine receptor A3 [2]; at D(3) dopamine receptor; in assay [3]; in [4]; in [5]) was > 30 µM throughout.
On to `OC(CCCN1CCCCC1)(c1ccccc1)c1ccccc1` [DIPHENIDOL], for which the AC50 was > 30 µM in assay [1]; > 30 µM at Adenosine receptor A3 [2]; 2.15 µM on D(3) dopamine receptor; > 30 µM in assay [3]; > 30 µM in [4]; 6.87 µM in assay [5].
As to `O=C(CCCN1CC=C(n2c(=O)[nH]c3ccccc32)CC1)c1ccc(F)cc1` [DROPERIDOL], the AC50 (in assay [1]; on Adenosine receptor A3 [2]; on D(3) dopamine receptor; in assay [3]; in assay [5]; in assay [6]) was > 30 µM throughout.
In the case of `CCn1cc(C(=O)O)c(=O)c2cc(F)c(N3CCNCC3)nc21` [ENOXACIN], the AC50 in [1] is > 30 µM; in assay [7], > 10 µM; at Adenosine receptor A3 [2], > 30 µM; on Adenosine receptor A3 [8] it was > 30 µM; at D(3) dopamine receptor it was > 30 µM; on Histamine H2 receptor it was > 10 µM. Further, the AC50 in assay [3] is > 30 µM; in assay [9], > 10 µM; in assay [10], > 10 µM; at Motilin receptor, > 10 µM; in assay [11], > 10 µM; on D(1A) dopamine receptor, > 10 µM. The AC50 was > 30 µM in [5]; > 10 µM in assay [12]; > 30 µM in [6]; > 10 µM in assay [13]; > 10 µM in assay [14].
Turning to `CCOC(=O)c1ccc(OC(=O)CCCCCNC(=N)N)cc1` [GABEXATE], the half-maximal activity concentration (AC50) (in [1]; on Adenosine receptor A3 [2]; on D(3) dopamine receptor; in assay [3]; in assay [5]; in [6]) was > 30 µM each time.
On to `CCCCC/C=C\C/C=C\C/C=C\CCCCC(=O)O` [GAMOLENIC ACID], for which the AC50 (in [1]; at Adenosine receptor A3 [2]; on D(3) dopamine receptor; in assay [3]; in assay [5]; in assay [6]) was > 30 µM throughout.
Regarding `NC(=O)NCCC[C@H](N)C(=O)O` [L-CITRULLINE], the AC50 (in assay [1]; on Adenosine receptor A3 [2]; at D(3) dopamine receptor; in assay [3]; in assay [5]; in [6]) was > 30 µM in each case.
As for `CC(=O)O[C@H]1C[C@H](O[C@H]2[C@@H](O)C[C@H](O[C@H]3[C@@H](O)C[C@H](O[C@H]4CC[C@@]5(C)[C@H](CC[C@@H]6[C@@H]5C[C@@H](O)[C@]5(C)[C@@H](C7=CC(=O)OC7)CC[C@]65O)C4)O[C@@H]3C)O[C@@H]2C)O[C@H](C)[C@H]1O[C@@H]1O[C@H](CO)[C@@H](O)[C@H](O)[C@H]1O` [LANATOSIDE C], the AC50 (in assay [1]; on Adenosine receptor A3 [2]; on D(3) dopamine receptor; in [3]; in assay [5]; in assay [6]) was > 30 µM throughout.
Consider `CO[C@H]1[C@@H](O)C[C@H](O[C@H]2[C@@H](O)C[C@H](O[C@H]3[C@@H](O)C[C@H](O[C@H]4CC[C@@]5(C)[C@H](CC[C@@H]6[C@@H]5C[C@@H](O)[C@]5(C)[C@@H](C7=CC(=O)OC7)CC[C@]65O)C4)O[C@@H]3C)O[C@@H]2C)O[C@@H]1C` [METILDIGOXIN], for which the AC50 (in [1]; on Adenosine receptor A3 [2]; on D(3) dopamine receptor; in assay [3]; in assay [5]; in [6]) was > 30 µM in each case.
Take `N[C@@H](Cc1c[nH]c2ccc(O)cc12)C(=O)O` [OXITRIPTAN]: the AC50 in assay [1] was > 30 µM; on Adenosine receptor A3 [2], 0.765 µM; on D(3) dopamine receptor, > 30 µM; in assay [3], 10.1 µM; in assay [4], > 30 µM.
Consider `CCCCCCCCCCCCCCCCCC(=O)NCCCC[C@H](NC(=O)CC[C@@H](NC(=O)[C@H](C)NC(=O)[C@@H](C)O[C@H]1[C@H](O)[C@@H](CO)OC(O)[C@@H]1NC(C)=O)C(N)=O)C(=O)O` (stereo not given in full) [ROMURTIDE], for which the AC50 was > 30 µM in assay [1]; 2.2 µM at Adenosine receptor A3 [2]; > 30 µM at D(3) dopamine receptor; > 30 µM in assay [3]; 6.21 µM in assay [5]; > 30 µM in [6].
As for `C[C@@H]1C[C@H]2[C@@H]3CCC4=CC(=O)C=C[C@]4(C)C3=CC[C@]2(C)[C@H]1C(=O)CN1CCN(c2cc(N3CCCC3)nc(N3CCCC3)n2)CC1` [TIRILAZAD], the AC50 was > 30 µM in [1]; 4.07 µM on Adenosine receptor A3 [2]; 9.69 µM on D(3) dopamine receptor; > 30 µM in assay [3]; > 30 µM in assay [5]; > 30 µM in assay [6].

The values are drawn from ChEMBL document CHEMBL5291721, “A preclinical secondary pharmacology resource illuminates target-adverse drug reaction associations of marketed drugs” (Nat Commun, 2023).
